{"source": "patent US12371748B2", "about": "“Genetic markers for predicting responsiveness to therapy with HDL-raising or HDL mimicking agent” (Hoffmann-La Roche Inc., priority 2014, dated 2025)", "key": {"[1]": {"experiment": "dal-OUTCOMES: change in plasma lipids by rs1967309 genotype", "type": "in vivo, human", "conditions": "for change in total cholesterol at 1 month: dalcetrapib arm", "procedure": "All patients were following individualized programs to target LDL cholesterol levels of 100 mg per deciliter (2.6 mmol per liter) or lower by statin if tolerated and diet. No specific statin agent was specified, and patients were not excluded based on LDL cholesterol values. Patients with serum triglyceride levels of 400 mg per deciliter (4.5 mmol per liter) or higher were excluded. (Schwartz G G et al. N Engl J Med 2012; 367:2089-99) Eligible participants to the dal-Outcomes trial entered a single-blind placebo run-in period of approximately 4 to 6 weeks to allow for patients to stabilise and for completion of planned revascularisation procedures. At the end of the run-in period, eligible patients in stable condition were randomised in a 1:1 ratio to 600 mg of dalcetrapib or placebo on top of evidence-based medical care for acute coronary syndrome. Cardiovascular events were adjudicated by an independent clinical endpoint committee. For the pharmacogenomics study, 6338 patients were recruited from April 2008 through July 2010 at 461 sites in 14 countries and provided written informed consent to participate to the genetic study of the dal-OUTCOMES trial. DNA was extracted from whole blood. Following genomic data cleanup, samples from 5749 Caucasian patients were used for the discovery genome-wide association study (GWAS).\nThis effect was not observed in the placebo arm. […] During the dalcetrapib treatment period, GG carriers had overall slightly lower LDL-cholesterol levels (adjusted P=0.048; repeated measures analysis, FIG. 4)."}, "CETP [2]": {"target": "T1, CETP (Oryctolagus cuniculus, UniProt P22687)", "T1 construct": "host or cells: rabbits (in vivo; endogenous plasma CETP)", "T1 sequence (P22687 2-497)": "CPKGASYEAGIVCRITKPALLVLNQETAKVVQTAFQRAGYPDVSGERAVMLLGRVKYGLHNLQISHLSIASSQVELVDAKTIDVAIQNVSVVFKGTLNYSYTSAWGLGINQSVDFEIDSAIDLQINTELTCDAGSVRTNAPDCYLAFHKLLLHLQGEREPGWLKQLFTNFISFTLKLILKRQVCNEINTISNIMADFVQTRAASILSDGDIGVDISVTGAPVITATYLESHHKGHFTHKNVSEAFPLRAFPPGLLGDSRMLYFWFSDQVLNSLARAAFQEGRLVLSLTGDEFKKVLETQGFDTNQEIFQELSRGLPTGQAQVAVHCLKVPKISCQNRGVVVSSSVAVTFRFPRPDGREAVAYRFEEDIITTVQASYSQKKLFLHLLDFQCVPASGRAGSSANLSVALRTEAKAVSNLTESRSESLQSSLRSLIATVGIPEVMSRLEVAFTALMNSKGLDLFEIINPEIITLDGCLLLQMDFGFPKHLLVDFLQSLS", "conditions": "rabbits; cited from earlier work"}, "CETP [3]": {"target": "T2, CETP (Homo sapiens, UniProt P11597)", "T2 construct": "host or cells: humans (in vivo; endogenous plasma CETP)", "T2 sequence (P11597 18-493)": "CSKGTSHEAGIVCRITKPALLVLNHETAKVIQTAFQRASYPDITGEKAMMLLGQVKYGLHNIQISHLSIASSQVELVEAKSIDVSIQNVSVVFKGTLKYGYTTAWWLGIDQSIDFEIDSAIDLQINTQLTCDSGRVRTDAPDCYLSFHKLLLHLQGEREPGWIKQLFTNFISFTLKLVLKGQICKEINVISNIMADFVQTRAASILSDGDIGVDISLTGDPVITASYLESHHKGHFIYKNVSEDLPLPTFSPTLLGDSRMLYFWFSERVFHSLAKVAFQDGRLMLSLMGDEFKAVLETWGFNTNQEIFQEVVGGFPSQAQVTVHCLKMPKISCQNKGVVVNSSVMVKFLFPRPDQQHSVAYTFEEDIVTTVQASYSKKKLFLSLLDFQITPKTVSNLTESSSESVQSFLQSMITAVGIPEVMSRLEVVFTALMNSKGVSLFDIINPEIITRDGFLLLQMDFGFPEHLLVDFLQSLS", "conditions": "humans; cited from earlier work"}, "[4]": {"conditions": "humans; cited from earlier work"}}, "data": [{"smiles": "CCC(CC)CC1(C(=O)Nc2ccccc2SC(=O)C(C)C)CCCCC1", "note": "[dalcetrapib, thioisobutyric acid S-(2-{[1-(2-ethyl-butyl)-cyclohexanecarbonyl]-amino}-phenyl) ester]", "values": [{"measurement": "change in total cholesterol at 1 month", "setting": "[1]; rs1967309 AA", "value": "13.8 ± 24.0", "unit": "mg/dL"}, {"measurement": "change in total cholesterol at 1 month", "setting": "[1]; rs1967309 AG", "value": "12.9 ± 30.3", "unit": "mg/dL"}, {"measurement": "change in total cholesterol at 1 month", "setting": "[1]; rs1967309 GG", "value": "10.0 ± 23.3", "unit": "mg/dL"}, {"measurement": "change in LDL-cholesterol after 1 month of dalcetrapib treatment", "setting": "[1]; rs1967309 AA", "value": "+0.6±21.0 mg/dl"}, {"measurement": "change in LDL-cholesterol after 1 month of dalcetrapib treatment", "setting": "[1]; rs1967309 AG", "value": "-1.0 ± 20.0", "unit": "mg/dL"}, {"measurement": "change in LDL-cholesterol after 1 month of dalcetrapib treatment", "setting": "[1]; rs1967309 GG", "value": "-2.0 ± 20.0", "unit": "mg/dL"}, {"measurement": "CETP activity", "setting": "CETP [2]", "value": "inhibitor of CETP activity"}, {"measurement": "CETP activity", "setting": "CETP [3]", "value": "inhibitor of CETP activity"}, {"measurement": "LDL cholesterol", "setting": "[4]", "value": "decrease LDL cholesterol"}, {"measurement": "plasma HDL cholesterol", "setting": "[4]", "value": "increase plasma HDL cholesterol"}]}]}
